# Laboratory results reported in paper PMC5218480 (PLoS ONE, 2017).
# Test system: MV-4-11 cells
# Assay: Gene expression microarray analysis (Affymetrix PrimeView) and GSEA
# Assay type: cell-based, human
# Parameters: RFU PODN (11730768_x_at) / Fold change /veh PODN (11730768_x_at) / RFU LINC00158 (11744669_a_at) / Fold change /veh LINC00158 (11744669_a_at) / RFU DUSP10 (11751237_a_at) / Fold change /veh DUSP10 (11751237_a_at) / RFU ID3 (11757404_x_at) / Fold change /veh ID3 (11757404_x_at) / RFU PLEKHG5 (11737974_s_at) / Fold change /veh PLEKHG5 (11737974_s_at) / RFU LRRC4B (11730491_at) / Fold change /veh LRRC4B (11730491_at) / RFU GIMAP4 (11747438_a_at) / Fold change /veh GIMAP4 (11747438_a_at) / RFU KRT8 (11758183_x_at) / Fold change /veh KRT8 (11758183_x_at) / RFU CNN1 (11734310_a_at) / Fold change /veh CNN1 (11734310_a_at) / RFU VPS37D (11726825_at) / Fold change /veh VPS37D (11726825_at) / RFU C10orf10 (11716522_x_at) / Fold change /veh C10orf10 (11716522_x_at) / RFU KIR2DL2 /// KIR2DL4 /// KIR2DL5A /// KIR2DL5B /// KIR2DS1 /// KIR2DS2 /// KIR2DS3 /// KIR2DS4 /// KIR3DL3 /// KIR3DL3 /// KIR3DS1 (11738374_at) / Fold change /veh KIR2DL2 /// KIR2DL4 /// KIR2DL5A /// KIR2DL5B /// KIR2DS1 /// KIR2DS2 /// KIR2DS3 /// KIR2DS4 /// KIR3DL3 /// KIR3DL3 /// KIR3DS1 (11738374_at) / RFU C1QL1 (11718748_at) / Fold change /veh C1QL1 (11718748_at) / RFU TMPRSS4 (11747572_a_at) / Fold change /veh TMPRSS4 (11747572_a_at) / RFU HAMP (11756126_x_at) / Fold change /veh HAMP (11756126_x_at) / RFU RNFT2 (11725882_a_at) / Fold change /veh RNFT2 (11725882_a_at) / RFU NR4A2 (11747474_a_at) / Fold change /veh NR4A2 (11747474_a_at) / RFU ABCC12 (11746883_a_at) / Fold change /veh ABCC12 (11746883_a_at) / RFU TMEM136 (11760407_x_at) / Fold change /veh TMEM136 (11760407_x_at) / RFU CLDN22 /// WWC2 (11732394_at) / Fold change /veh CLDN22 /// WWC2 (11732394_at) / RFU HLA-DPB1 (11760878_x_at) / Fold change /veh HLA-DPB1 (11760878_x_at) / RFU SPINT1 (11716480_a_at) / Fold change /veh SPINT1 (11716480_a_at) / RFU GAP43 (11754022_s_at) / Fold change /veh GAP43 (11754022_s_at) / RFU A4GNT (11735810_at) / Fold change /veh A4GNT (11735810_at) / RFU PRB3 (11715151_x_at) / Fold change /veh PRB3 (11715151_x_at) / RFU TUBB4B (11761932_at) / Fold change /veh TUBB4B (11761932_at) / RFU CAPN14 (11732068_a_at) / Fold change /veh CAPN14 (11732068_a_at) / RFU TMCC2 (11721928_a_at) / Fold change /veh TMCC2 (11721928_a_at) / RFU IRGQ (11745062_a_at) / Fold change /veh IRGQ (11745062_a_at) / RFU FAM174B (11720279_a_at) / Fold change /veh FAM174B (11720279_a_at) / RFU TMPRSS4 (11748680_a_at) / Fold change /veh TMPRSS4 (11748680_a_at) / RFU FAM212B (11763350_a_at) / Fold change /veh FAM212B (11763350_a_at) / RFU PLEKHG5 (11743358_a_at) / Fold change /veh PLEKHG5 (11743358_a_at) / RFU ZSCAN30 (11745921_a_at) / Fold change /veh ZSCAN30 (11745921_a_at) / RFU CMKLR1 (11741424_a_at) / Fold change /veh CMKLR1 (11741424_a_at) / RFU LOC101060620 /// MAPK8IP1 (11723275_at) / Fold change /veh LOC101060620 /// MAPK8IP1 (11723275_at) / RFU SPTSSB (11747773_x_at) / Fold change /veh SPTSSB (11747773_x_at) / RFU PRSS12 (11739890_at) / Fold change /veh PRSS12 (11739890_at) / RFU BIN1 (11741810_x_at) / Fold change /veh BIN1 (11741810_x_at) / RFU WNT11 (11732464_a_at) / Fold change /veh WNT11 (11732464_a_at) / RFU C10orf10 (11716521_a_at) / Fold change /veh C10orf10 (11716521_a_at) / RFU C5orf56 (11738089_at) / Fold change /veh C5orf56 (11738089_at) / RFU CYB561 (11721691_x_at) / Fold change /veh CYB561 (11721691_x_at) / RFU ANKRD19P (11752326_a_at) / Fold change /veh ANKRD19P (11752326_a_at) / RFU OR2T12 /// OR2T33 /// OR2T8 (11738714_s_at) / Fold change /veh OR2T12 /// OR2T33 /// OR2T8 (11738714_s_at) / RFU VCAN (11748164_a_at) / Fold change /veh VCAN (11748164_a_at) / RFU JSRP1 (11732532_at) / Fold change /veh JSRP1 (11732532_at) / RFU KRTAP10-11 (11738290_x_at) / Fold change /veh KRTAP10-11 (11738290_x_at) / RFU MYO3A (11730013_a_at) / Fold change /veh MYO3A (11730013_a_at) / RFU EBF3 (11725865_a_at) / Fold change /veh EBF3 (11725865_a_at) / RFU CAMK2N1 (11719241_x_at) / Fold change /veh CAMK2N1 (11719241_x_at) / RFU C5orf56 (11738088_a_at) / Fold change /veh C5orf56 (11738088_a_at) / RFU OLFML3 (11715873_a_at) / Fold change /veh OLFML3 (11715873_a_at) / RFU LOC100653217 /// NTM (11731650_a_at) / Fold change /veh LOC100653217 /// NTM (11731650_a_at) / RFU MAPK11 (11762145_a_at) / Fold change /veh MAPK11 (11762145_a_at) / RFU FIZ1 (11724087_x_at) / Fold change /veh FIZ1 (11724087_x_at) / RFU OASL (11726364_x_at) / Fold change /veh OASL (11726364_x_at) / RFU SOX15 (11748057_x_at) / Fold change /veh SOX15 (11748057_x_at) / RFU CD79A (11719716_a_at) / Fold change /veh CD79A (11719716_a_at) / RFU HIST1H1D (11736915_at) / Fold change /veh HIST1H1D (11736915_at) / RFU CASKIN2 (11723855_a_at) / Fold change /veh CASKIN2 (11723855_a_at) / RFU LOC730098 (11760151_x_at) / Fold change /veh LOC730098 (11760151_x_at) / RFU OR4N2 (11742367_at) / Fold change /veh OR4N2 (11742367_at) / RFU PRRT2 (11749266_a_at) / Fold change /veh PRRT2 (11749266_a_at) / RFU SNX32 (11753110_a_at) / Fold change /veh SNX32 (11753110_a_at) / RFU CDHR5 (11726645_a_at) / Fold change /veh CDHR5 (11726645_a_at) / RFU RCAN1 (11760418_a_at) / Fold change /veh RCAN1 (11760418_a_at) / RFU FAM167A (11723789_a_at) / Fold change /veh FAM167A (11723789_a_at) / RFU FAM26E (11764081_at) / Fold change /veh FAM26E (11764081_at) / RFU ISYNA1 (11749810_s_at) / Fold change /veh ISYNA1 (11749810_s_at) / RFU ACY1 (11761880_at) / Fold change /veh ACY1 (11761880_at) / RFU 11764098_at / Fold change /veh 11764098_at / RFU SAMD14 (11745864_x_at) / Fold change /veh SAMD14 (11745864_x_at) / RFU NPB (11741838_a_at) / Fold change /veh NPB (11741838_a_at) / RFU TMPRSS6 (11731388_a_at) / Fold change /veh TMPRSS6 (11731388_a_at) / RFU KRTAP10-2 (11738614_at) / Fold change /veh KRTAP10-2 (11738614_at) / RFU ARHGAP8 /// PRR5-ARHGAP8 (11727945_x_at) / Fold change /veh ARHGAP8 /// PRR5-ARHGAP8 (11727945_x_at) / RFU KRTAP5-7 /// NADSYN1 (11734609_at) / Fold change /veh KRTAP5-7 /// NADSYN1 (11734609_at) / RFU RASL12 (11751679_a_at) / Fold change /veh RASL12 (11751679_a_at) / RFU CDKN2B (11736163_a_at) / Fold change /veh CDKN2B (11736163_a_at) / RFU PRF1 (11729649_at) / Fold change /veh PRF1 (11729649_at) / RFU, ZNF638 /// ZNF638-IT1 / Fold change vs veh, ZNF638 /// ZNF638-IT1 / RFU, PANK3 / Fold change vs veh, PANK3 / RFU, SH3YL1 / Fold change vs veh, SH3YL1 / RFU, ZEB2 / Fold change vs veh, ZEB2 / RFU, NRIP1 / Fold change vs veh, NRIP1 / RFU, PTTG1IP / Fold change vs veh, PTTG1IP / RFU, CAPN2 / Fold change vs veh, CAPN2 / RFU, MED14 / Fold change vs veh, MED14 / RFU, SNORA58 / Fold change vs veh, SNORA58 / RFU, C1orf63 / Fold change vs veh, C1orf63 / RFU, LRRFIP1 / Fold change vs veh, LRRFIP1 / RFU, NDUFAF7 / Fold change vs veh, NDUFAF7 / RFU, SLC12A2 / Fold change vs veh, SLC12A2 / RFU, IBTK / Fold change vs veh, IBTK / RFU, ESF1 / Fold change vs veh, ESF1 / Fold change vs veh, TMEM50B / RFU, TAOK1 / Fold change vs veh, TAOK1 / RFU, ACBD3 / Fold change vs veh, ACBD3 / RFU, TMA16 / Fold change vs veh, TMA16 / RFU, RWDD3 / Fold change vs veh, RWDD3 / RFU, BCAT1 / Fold change vs veh, BCAT1 / RFU, EDEM3 / Fold change vs veh, EDEM3 / RFU, TMEM33 / Fold change vs veh, TMEM33 / RFU, WDR75 / Fold change vs veh, WDR75 / RFU, AHCTF1 / Fold change vs veh, AHCTF1 / RFU, TFRC / Fold change vs veh, TFRC / RFU, ZDHHC17 / Fold change vs veh, ZDHHC17 / RFU, NOM1 / Fold change vs veh, NOM1 / RFU, ARL8B / Fold change vs veh, ARL8B / RFU, ZBTB11 / Fold change vs veh, ZBTB11 / RFU, TAMM41 / Fold change vs veh, TAMM41 / RFU, KIAA1704 /// LOC100996395 / Fold change vs veh, KIAA1704 /// LOC100996395 / RFU, ING1 / Fold change vs veh, ING1 / RFU, TRMT61B / Fold change vs veh, TRMT61B / RFU, FUBP3 / Fold change vs veh, FUBP3 / RFU, TP53 / Fold change vs veh, TP53 / RFU, TNKS2 / Fold change vs veh, TNKS2 / RFU, ZFP14 / Fold change vs veh, ZFP14 / RFU, ACTR2 / Fold change vs veh, ACTR2 / RFU, PPP3R1 / Fold change vs veh, PPP3R1 / RFU, PIK3R1 / Fold change vs veh, PIK3R1 / RFU, HNRNPA1 / Fold change vs veh, HNRNPA1 / RFU, RNF170 / Fold change vs veh, RNF170 / RFU, ZNF28 / Fold change vs veh, ZNF28 / RFU, RNGTT / Fold change vs veh, RNGTT / RFU, OGT / Fold change vs veh, OGT / RFU, BRD1 / Fold change vs veh, BRD1 / RFU, MARS / Fold change vs veh, MARS / RFU, ZNF655 / Fold change vs veh, ZNF655 / RFU, FAHD1 / Fold change vs veh, FAHD1 / RFU, BDP1 / Fold change vs veh, BDP1 / RFU, LRRCC1 / Fold change vs veh, LRRCC1 / RFU, ARID1A / Fold change vs veh, ARID1A / RFU, ZNF146 / Fold change vs veh, ZNF146 / RFU, ZNF330 / Fold change vs veh, ZNF330 / RFU, GPN3 / Fold change vs veh, GPN3 / RFU, C9orf123 / Fold change vs veh, C9orf123 / RFU, N4BP2L2 / Fold change vs veh, N4BP2L2 / RFU, ARFIP1 / Fold change vs veh, ARFIP1 / RFU, FAM179B / Fold change vs veh, FAM179B / RFU, BCL10 / Fold change vs veh, BCL10 / RFU, UHRF1BP1L / Fold change vs veh, UHRF1BP1L / RFU, BET1 / Fold change vs veh, BET1 / RFU, CNOT2 / Fold change vs veh, CNOT2 / RFU, ZNF268 / Fold change vs veh, ZNF268 / Fold change vs veh, ZNF507 / RFU, DGCR2 / Fold change vs veh, DGCR2 / RFU, WDSUB1 / Fold change vs veh, WDSUB1 / Fold change vs veh, HSP90B1 /// MIR3652 / RFU, ADSS / Fold change vs veh, ADSS / RFU, GK / Fold change vs veh, GK / RFU, ZNF148 / Fold change vs veh, ZNF148 / RFU, TAF9 / Fold change vs veh, TAF9 / RFU, SLC1A5 / Fold change vs veh, SLC1A5 / RFU, SLMO2 / Fold change vs veh, SLMO2 / RFU, ABCC4 / Fold change vs veh, ABCC4 / RFU, LOC101060439 /// RAP1B / Fold change vs veh, LOC101060439 /// RAP1B / RFU, RFX7 / Fold change vs veh, RFX7 / RFU, GTPBP10 / Fold change vs veh, GTPBP10 / RFU, CNEP1R1 / Fold change vs veh, CNEP1R1 / RFU, BIVM-ERCC5 /// ERCC5 / Fold change vs veh, BIVM-ERCC5 /// ERCC5 / RFU, ILF3 / Fold change vs veh, ILF3 / RFU 11762660_at / Fold change /veh 11762660_at / RFU VCAN (11757783_s_at) / Fold change /veh VCAN (11757783_s_at) / RFU DDX43 (11728927_at) / Fold change /veh DDX43 (11728927_at) / RFU KRT8 (11758188_x_at) / Fold change /veh KRT8 (11758188_x_at) / RFU NKD1 (11759106_at) / Fold change /veh NKD1 (11759106_at) / RFU SRD5A1 (11742802_a_at) / Fold change /veh SRD5A1 (11742802_a_at) / RFU TPSAB1 /// TPSB2 (11721975_s_at) / Fold change /veh TPSAB1 /// TPSB2 (11721975_s_at) / RFU GSTM3 (11746129_a_at) / Fold change /veh GSTM3 (11746129_a_at) / RFU IL23R (11737362_x_at) / Fold change /veh IL23R (11737362_x_at) / RFU TMEM51 (11727254_a_at) / Fold change /veh TMEM51 (11727254_a_at) / RFU PIWIL2 (11732686_x_at) / Fold change /veh PIWIL2 (11732686_x_at) / RFU ORM1 (11744905_x_at) / Fold change /veh ORM1 (11744905_x_at) / RFU CCDC152 (11743942_at) / Fold change /veh CCDC152 (11743942_at) / RFU ECM1 (11717891_a_at) / Fold change /veh ECM1 (11717891_a_at) / RFU IL23R (11748794_a_at) / Fold change /veh IL23R (11748794_a_at) / RFU TNFAIP8L3 (11732012_x_at) / Fold change /veh TNFAIP8L3 (11732012_x_at) / RFU MBOAT4 (11741988_at) / Fold change /veh MBOAT4 (11741988_at) / RFU 11764193_at / Fold change /veh 11764193_at / RFU TMEM53 (11763286_at) / Fold change /veh TMEM53 (11763286_at) / RFU MAGEB2 (11727129_at) / Fold change /veh MAGEB2 (11727129_at) / RFU TMEM200A (11744735_a_at) / Fold change /veh TMEM200A (11744735_a_at) / RFU CCDC152 (11751479_a_at) / Fold change /veh CCDC152 (11751479_a_at) / RFU FAM211A (11726209_a_at) / Fold change /veh FAM211A (11726209_a_at) / RFU RGS16 (11746705_a_at) / Fold change /veh RGS16 (11746705_a_at) / RFU VCAN (11755009_s_at) / Fold change /veh VCAN (11755009_s_at) / RFU RHOB (11743442_s_at) / Fold change /veh RHOB (11743442_s_at) / RFU RGS16 (11720943_a_at) / Fold change /veh RGS16 (11720943_a_at) / RFU RGS16 (11720944_at) / Fold change /veh RGS16 (11720944_at) / RFU, VPS4B / Fold change vs veh, VPS4B / RFU, CREB1 / Fold change vs veh, CREB1 / RFU, DNAJC13 / Fold change vs veh, DNAJC13 / RFU, GNAQ / Fold change vs veh, GNAQ / RFU, CDK5R1 / Fold change vs veh, CDK5R1 / RFU, ZRANB3 / Fold change vs veh, ZRANB3 / RFU, CUL4A / Fold change vs veh, CUL4A / RFU, CCNY / Fold change vs veh, CCNY / RFU, UFL1 / Fold change vs veh, UFL1 / RFU, COG3 / Fold change vs veh, COG3 / RFU, DIAPH2 / Fold change vs veh, DIAPH2 / RFU, SKA2 / Fold change vs veh, SKA2 / RFU, AFF3 / Fold change vs veh, AFF3 / RFU, LMF1 / Fold change vs veh, LMF1 / RFU, IPO11 / Fold change vs veh, IPO11 / RFU, DFFB / Fold change vs veh, DFFB / RFU, FOXP1 / Fold change vs veh, FOXP1 / RFU, CARD8 / Fold change vs veh, CARD8 / RFU, STRN3 / Fold change vs veh, STRN3 / RFU, ADK / Fold change vs veh, ADK / RFU, RASSF2 / Fold change vs veh, RASSF2 / RFU, WIPF1 / Fold change vs veh, WIPF1 / RFU, LARP1B / Fold change vs veh, LARP1B / RFU, RASA1 / Fold change vs veh, RASA1 / RFU, RB1 / Fold change vs veh, RB1 / RFU, PPFIA1 / Fold change vs veh, PPFIA1 / RFU, MAT2A / Fold change vs veh, MAT2A / RFU, CCT5 / Fold change vs veh, CCT5 / RFU, WDR92 / Fold change vs veh, WDR92 / RFU, CUX1 / Fold change vs veh, CUX1 / RFU, TTC7A / Fold change vs veh, TTC7A / RFU, TMEM135 / Fold change vs veh, TMEM135 / RFU, DEPTOR / Fold change vs veh, DEPTOR / RFU, CPM / Fold change vs veh, CPM / RFU, DNAJB6 / Fold change vs veh, DNAJB6 / RFU, CACNA2D3 / Fold change vs veh, CACNA2D3 / RFU, DTX4 / Fold change vs veh, DTX4 / RFU, TFCP2 / Fold change vs veh, TFCP2 / RFU, GMCL1 /// GMCL1P1 / Fold change vs veh, GMCL1 /// GMCL1P1 / RFU, AEBP2 / Fold change vs veh, AEBP2 / RFU, SNHG1 /// SNORD22 /// SNORD25 /// SNORD26 /// SNORD27 /// SNORD28 /// SNORD29 /// SNORD31 / Fold change vs veh, SNHG1 /// SNORD22 /// SNORD25 /// SNORD26 /// SNORD27 /// SNORD28 /// SNORD29 /// SNORD31 / Fold change (Aza/veh), C12orf56 (ProbeSet 11735607_a_at) / Fold change (ACY-1035/veh), C12orf56 (ProbeSet 11735607_a_at) / Fold change (Aza/veh), FGFR1OP (ProbeSet 11751329_s_at) / Fold change (ACY-1035/veh), FGFR1OP (ProbeSet 11751329_s_at) / Fold change (Aza/veh), VPS36 (ProbeSet 11739960_a_at) / Fold change (ACY-1035/veh), VPS36 (ProbeSet 11739960_a_at) / RFU SYPL1 (11715823_x_at) / Fold change /veh SYPL1 (11715823_x_at) / RFU IGFBP7 (11715501_s_at) / Fold change /veh IGFBP7 (11715501_s_at) / RFU REEP3 (11722064_at) / Fold change /veh REEP3 (11722064_at) / RFU IGLL1 (11728026_x_at) / Fold change /veh IGLL1 (11728026_x_at): dose or concentration left out as unconfirmed
# Conditions: MV-4-11 cells, 48 hours
structure (smiles),measurement,value
Nc1ncn([C@@H]2O[C@H](CO)[C@@H](O)[C@H]2O)c(=O)n1 [azacitidine],Fold change /veh MAPK11 (11762145_a_at),1.03
